Test results as given in patent US5962424A, “Methods and compositions for targeting selectins” (Arch Development Corporation, priority 1995, dated 1999).

Columns and labels:
[1] = test system: selectin; settings: cited from earlier work; for blocking of selectin binding to sLe^x: in vitro
[2] = test system: E-selectin production in irradiated HUVEC; experiment: x-ray-mediated E-selectin induction in HUVEC after inhibitor pretreatment (antibody labeling, flow cytometry); format: cell-based, human; settings: H7 100 nM, staurosporin 10 nM, BPB 10 μM, mepacrine 20 μM added prior to irradiation
Experimental: HUVEC and HMEC cells were grown to 90% confluence and irradiated with a GE Maxitron x-ray generator as previously described (Hallahan et al., 1989). Cells were removed from flasks with 0.1% collagenase, 0.01% EDTA, 0.25% BSA and pelleted in 12×75 mm polystyrene tubes. The supernatant was discarded and the cells were incubated with primary IgG1 antibody (mouse anti-human ICAM-1 and E-selectin-1; R&D Systems, Inc., Minneapolis,MN) for 20 min at 4° C.
The cells were then rinsed with isotonic phosphate buffered saline (PBS), pelleted and incubated with FITC-conjugated secondary antibody (goat anti-mouse IgG1) for 20 min at 4° C. The fluorescently labeled cells were rinsed in PBS and fixed in PBS containing 0.01% paraformaldehyde.
Fluorescence activated cell sorting (FACS) analysis was utilized for quantitation of receptor expression of ICAM-1 and E-selectin on HUVEC. The Becton Dickinson FACScanner was used with Lysis II software. Forward and side scatter fluorescence data identified 10,000 viable endothelial cells in each experimental group for unlabeled cells, nonspecific-antibody-labelled cells, ICAM-1-labeled cells and E-selectin-labeled cells. Fluorescence data were then accumulated on each group of 10,000 cells at 530 nm, the wavelength emitted by FITC.
The fluorescence data were expressed as histograms of events versus log fluorescence and analyzed in comparison to the autofluorescence of unlabelled cells as well as the fluorescence of baseline ICAM-1 labelled or E-selectin-1 labeled cells as appropriate. During inhibition studies, PKC inhibitors H7 100 nM and staurosporin 10 nM or Phospholipase A2 inhibitors BPB 10 μM or mepacrine 20 μM were added to cell cultures 30 min prior to irradiation.
PKC participates in both NFkB activation and signal transduction initiated by ionizing radiation (Hallahan et al., 1991). Furthermore, PLA2 participates in free-radical and x-ray-mediated PKC activation and gene induction (Hallahan et al., 1991). To determine whether PLA2 or PKC activation is required for radiation-mediated E-selectin induction, the inventors added the PKC inhibitors H7 and staurosporin or the PLA2 inhibitors BPB or mepacrine to HUVEC […] prior to irradiation. Following irradiation, cells were scraped and E-selectin was quantified by antibody labeling and flow cytometry.

[3] = test system: HL60 cells / irradiated HUVECs; experiment: adherence of HL60 cells to irradiated HUVECs; format: cell-based, human; settings: 1 mM; added 4 h after 10 Gy irradiation, 30 min prior to HL60 cells
Experimental: Human leukemia cell line HL60 has been used to quantify leukocyte adhesion to endothelial cells (Jones et al., 1995). HL60 cells were added to HUVECs after exposure to 10 Gy or cells treated with otherwise identical conditions without irradiation. Cultures were washed and cells were counted using a hemocytometer. […] Glycyrrhizin, carminic acid or sialyl Lewis X (1 mM each, SIGMA) were added to irradiated cells at 4 h after irradiation and 30 min prior to the addition of HL60 cells.

[4] = rats, oral; cited from earlier work
[5] = test system: E-selectin; settings: competitive binding assay, cited from earlier work

SMILES	radiation-mediated E-selectin production [2]	adherence of HL60 cells to irradiated HUVECs [3]	other results
CC1(C)[C@@H](O)CC[C@]2(C)[C@H]3C(=O)C=C4[C@@H]5C[C@@](C)(C(=O)O)CC[C@]5(C)CC[C@@]4(C)[C@]3(C)CC[C@@H]12 [18-β-glycyrrhetinic acid]	–	–	IC50 ([1]; read-out: IC50 (blocking selectin activity)): > 2000 µM
O=C(CBr)c1ccc(Br)cc1 [BPB]	not attenuated	–	–
CC1(C)[C@@H](O[C@H]2O[C@H](C(=O)O)[C@@H](O)[C@H](O)[C@H]2O[C@@H]2O[C@H](C(=O)O)[C@@H](O)[C@H](O)[C@H]2O)CC[C@]2(C)[C@H]3C(=O)C=C4[C@@H]5C[C@@](C)(C(=O)O)CC[C@]5(C)CC[C@@]4(C)[C@]3(C)CC[C@@H]12 [Glycyrrhizin]	–	blocked the adherence	blocking of selectin binding to sLe^x [1]: block selectin binding; absorption from the gut [4]: poorly absorbed
CC1CNCCN1S(=O)(=O)c1cccc2cnccc12 (stereo not shown) [H7]	not attenuated	–	–
COC(=O)CCCCCCCCO[C@@H]1O[C@H](CO)[C@@H](O[C@@H]2O[C@@H](C)[C@@H](O)[C@@H](O)[C@@H]2O)[C@H](O[C@@H]2O[C@H](CO)[C@H](O)[C@H](O[C@]3(C(=O)O)C[C@H](O)[C@@H](NC(C)=O)[C@H]([C@H](O)[C@H](O)CO)O3)[C@H]2O)[C@H]1N [amino substituted sLe^a]	–	–	activity relative to the reducing tetrasaccharide sLe^x [5]: 36 fold; IC50 ([5]; read-out: IC50 (blocking of E-selectin)): 21 ± 3 µM
Cc1c(C(=O)O)c(O)cc2c1C(=O)c1c(O)c([C@@H]3O[C@H](CO)[C@@H](O)[C@H](O)[C@H]3O)c(O)c(O)c1C2=O [carminic acid]	–	blocked the adherence	blocking of selectin binding to sLe^x [1]: blocked selectin binding at concentrations comparable to those of glycyrrhizin
CCN(CC)CCCC(C)Nc1c2ccc(Cl)cc2nc2ccc(OC)cc12 (stereo not shown) [mepacrine]	not attenuated	–	–
CC(=O)N[C@H]1[C@H]([C@H](O)[C@H](O)CO)O[C@@](O[C@H]2[C@@H](O)[C@@H](CO)O[C@@H](O[C@H]3[C@H](O[C@@H]4O[C@@H](C)[C@@H](O)[C@@H](O)[C@@H]4O)[C@@H](NC(C)=O)C(O)O[C@@H]3CO)[C@@H]2O)(C(=O)O)C[C@@H]1O (stereo partly shown) [sialyl Lewis X, Neu5Acα2-3Galβ1-4[Fucα1-3]GlcNAc]	–	blocked the adherence	–
CN[C@@H]1C[C@H]2O[C@@](C)([C@@H]1OC)n1c3ccccc3c3c4c(c5c6ccccc6n2c5c31)C(=O)NC4 [staurosporin]	not attenuated	–	–
